Values quoted from earlier work in patent publication US12083109B2, “Neurokinin antagonists and uses thereof” (California Institute of Technology, priority 2017, dated 2024).
Like-named read-outs stand apart in the source and are kept apart here.

Molecular target: T1, NK3R (Homo sapiens, UniProt P29371)
T1 construct: host or cells: human trial subjects
T1 sequence (P29371 1-465): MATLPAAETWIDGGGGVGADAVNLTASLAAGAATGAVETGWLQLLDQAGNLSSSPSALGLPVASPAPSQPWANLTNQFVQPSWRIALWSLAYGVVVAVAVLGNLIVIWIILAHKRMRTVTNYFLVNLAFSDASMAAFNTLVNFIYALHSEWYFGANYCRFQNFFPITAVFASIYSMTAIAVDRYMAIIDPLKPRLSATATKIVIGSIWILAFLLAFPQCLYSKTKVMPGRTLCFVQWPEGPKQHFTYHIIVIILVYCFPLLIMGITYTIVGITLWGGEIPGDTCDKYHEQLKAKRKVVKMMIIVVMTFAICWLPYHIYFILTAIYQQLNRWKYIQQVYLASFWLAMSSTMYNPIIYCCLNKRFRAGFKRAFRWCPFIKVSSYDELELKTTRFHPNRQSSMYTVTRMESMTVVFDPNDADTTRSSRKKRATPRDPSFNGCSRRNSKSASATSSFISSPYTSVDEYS
Conditions: cited from earlier work; for safety and tolerability in clinical trials: human, Phase I

## CCC(NC(=O)c1c(O)c(-c2ccccc2)nc2ccccc12)c1ccccc1 (stereo not drawn) [Talnetant, 3-hydroxy-2-phenyl-N-(1-phenylpropyl)quinoline-4-carboxamide]
Human trials, Phase II/III
  efficacy in schizophrenia and major depressive disorder: lack of efficacy
  safety and tolerability in clinical trials: exhibited safety
Listed as talnetant
  safety and tolerability in clinical trials: safe and well-tolerated
